According to ChEMBL document CHEMBL4406910, “Scaffold Morphing Identifies 3-Pyridyl Azetidine Ureas as Inhibitors of Nicotinamide Phosphoribosyltransferase (NAMPT)” (ACS Med Chem Lett, 2019):
≈ marks a conversion by molar mass, not a printed value.

Tests used:
[1] = Solubility of compound in pH 6.8 PBS incubated for 16 to 24 hrs under shaking condition by LC-MS/MS analysis; format: physicochemical
[2] = Cmax in athymic nude mouse at 10 mg/kg, po measured for 0.5 to 24 hrs by LC-MS/MS analysis; format: ADME, organism-based; set-up: dose 10 mg/kg, route oral; conditions: in vivo
[3] = AUC (0 to 7 hrs) in athymic nude mouse at 10 mg/kg, po measured for 0.5 to 24 hrs by LC-MS/MS analysis; format: ADME, organism-based; set-up: time < 7 hr, dose 10 mg/kg, route oral; conditions: in vivo

| solubility thermodynamic [1] [µM] | Cmax [2] [µM] | AUC(0-t) at 7 h [3] [µM·h] | SMILES |
| --- | --- | --- | --- |
| 820 (≈ 346 µg/mL) |  |  | C[C@H](NC(=O)[C@@H]1CCCN1C)c1ccc(NC(=O)N2CC(c3cncc(N)c3)C2)cc1 |
| 310 (≈ 131 µg/mL) |  |  | C[C@H](NC(=O)C1CCOCC1)c1ccc(NC(=O)N2CC(c3ccc(N)nc3)C2)cc1 |
| 17 (≈ 7.37 µg/mL) |  |  | C[C@H](NC(=O)c1cccc(F)c1)c1ccc(NC(=O)N2CC(c3cncc(N)c3)C2)cc1 |
| 11 (≈ 4.6 µg/mL) |  |  | C[C@H](NC(=O)c1cccc(F)c1)c1ccc(NC(=O)N2CC(c3cccnc3)C2)cc1 |
|  | 29.1 | 67.4 | CCOc1nc2ccccc2n1Cc1ccc(NC(=O)N2CC(c3cccnc3)C2)cc1 |
| 700 (≈ 247 µg/mL) |  |  | CCC(=O)N[C@@H](C)c1ccc(NC(=O)N2CC(c3cccnc3)C2)cc1 |
| > 1000 |  |  | C[C@H](NC(=O)[C@@H]1CCCN1C)c1ccc(NC(=O)N2CC(c3cccnc3)C2)cc1 |
| 760 (≈ 321 µg/mL) |  |  | C[C@H](NC(=O)[C@@H]1CCCN1C)c1ccc(NC(=O)N2CC(c3ccc(N)nc3)C2)cc1 |
| 35 (≈ 15 µg/mL) |  |  | C[C@@H](c1ccc(NC(=O)N2CC(c3cncc(N)c3)C2)cc1)N1Cc2ccccc2C1=O |
| 130 (≈ 53.6 µg/mL) |  |  | C[C@@H](c1ccc(NC(=O)N2CC(c3cccnc3)C2)cc1)N1Cc2ccccc2C1=O |
| 930 (≈ 374 µg/mL) |  |  | C[C@H](NC(=O)c1ncccn1)c1ccc(NC(=O)N2CC(c3cccnc3)C2)cc1 |
| 440 (≈ 186 µg/mL) |  |  | C[C@H](NC(=O)C1CCOCC1)c1ccc(NC(=O)N2CC(c3cncc(N)c3)C2)cc1 |
| 230 (≈ 84.5 µg/mL) |  |  | CCC(=O)N[C@@H](C)c1ccc(NC(=O)N2CC(c3cncc(N)c3)C2)cc1 |
| 300 (≈ 125 µg/mL) |  |  | C[C@H](NC(=O)c1ncccn1)c1ccc(NC(=O)N2CC(c3cncc(N)c3)C2)cc1 |
| 220 (≈ 94.1 µg/mL) |  |  | C[C@@H](c1ccc(NC(=O)N2CC(c3ccc(N)nc3)C2)cc1)N1Cc2ccccc2C1=O |
| 32 (≈ 13.9 µg/mL) |  |  | C[C@H](NC(=O)c1cccc(F)c1)c1ccc(NC(=O)N2CC(c3ccc(N)nc3)C2)cc1 |
| 760 (≈ 279 µg/mL) |  |  | CCC(=O)N[C@@H](C)c1ccc(NC(=O)N2CC(c3ccc(N)nc3)C2)cc1 |
| 300 (≈ 125 µg/mL) |  |  | C[C@H](NC(=O)c1ncccn1)c1ccc(NC(=O)N2CC(c3ccc(N)nc3)C2)cc1 |
| 380 (≈ 155 µg/mL) |  |  | C[C@H](NC(=O)C1CCOCC1)c1ccc(NC(=O)N2CC(c3cccnc3)C2)cc1 |
